Legend:
[1] = DSS-induced IBD model in mice (Example 2); type: in vivo, C57BL mice; details: first experiment (FIG. 4A); DSS 2.5%; Coltect 150 mg/kg, 5-ASA 50 mg/kg oral gavage 7 days
Description: Age- and sex-matched C57BL 5-weeks old female mice were obtained from Harlan Laboratories, Israel. […] Four mice received saline (2.5%) and served as the negative control group. The mice were randomly divided into groups (n=8) and received the corresponding treatment starting from the first day for 7 days (Table 3). The treatments were given in doses of 0.5 ml of tap water with 2% DMSO by oral gavage. The following doses were used: Coltect-150 mg/kg body weight; 5-ASA-50 mg/kg body weight. All mice were sacrificed 7 days after the enema, their spleen and colon were removed, fixed in 10% formalin for histological evaluation and parts were frozen at […] for later examination. For macroscopic injury evaluation a revised colonic damage scoring system was used as described by Morris et al. Thus, the severity of colitis was determined based on the following parameters: • 1. Disease Activity Index (DAI): weight loss, gross bleeding, stool consistency (Table 2)—were daily recorded. • 2. Spleen weight. • 3. Colon length. • 4. Histological score. For histological injury evaluation tissues fixed in 10% formalin, were embedded in paraffin wax and cut. 4 μm sections were histologically stained and evaluated by light microscopy for ulceration and inflammation. [table]

[2] = tested on: Aberrant Crypt Foci (ACF); test: DMH-induced CRC model of aberrant crypt foci (ACF) in rats (Example 1); type: in vivo, Wistar rats; details: DMH 30 mg/kg rats; oral gavage; colons stained 60 days after DMH; Coltect 150 mg/kg, 5-ASA 50 mg/kg
Description: Age- and sex-matched 23 Wistar rats were purchased from the animal facilities at the Tel-Aviv Sourasky Medical Center (TASMC). The rats were injected subcutaneously twice a week for two weeks with 0.3 ml of 30 mg/kg body weight DMH (Sigma-Aldrich, Israel) dissolved in PBS, and groups (n=5) were randomly divided as follows (Table 1): The Coltect mixture was dissolved in a solution of DMSO (50%) and tap water. The solution was administered to the rats by oral gavage for five days, starting at the first day of DMH injections. During the experiment, the rats were weighed twice a week. Sixty days after DMH injections the rats were sacrificed by CO2 flow. The colons were removed and flushed with isotonic saline solution, opened longitudinally, cut into three parts of equal length, and labeled as proximal, middle and distal segments. The colons were laid open on a Wattman paper and fixed flat in 4% buffered formalin solution. The ACF were visualized and counted by using methylene blue staining (0.2% solution) and photographed. […] The number and multiplicity of ACF for each colonic segment were evaluated and recorded. The number and multiplicity of ACF were recorded separately for each segment. To determine multiplicity of ACF, the number of crypts in each focus was defined and recorded.

[3] = TNBS-induced IBD model in rats (Example 3); type: in vivo, Wistar rats; details: TNBS-induced model (FIG. 6); compared to negative and positive controls
Description: One day before the experiment the rats were weighted, marked according to the groups, and fasted for 24 hours (for colon emptying). At the day of the experiment the rats were anesthetized by an intra-peritoneal injection of halothene and colitis was induced by intra-rectal administration of 0.4 ml of a 25 mg/ml TNBS solution dissolved in 50% ethanol using an 8-cm long rubber catheter. Then, 0.4 ml of air was injected and the rats were kept in a Trendelenburg position for 30 sec to ensure that all TNBS solution left the catheter. Three rats received intra-rectal administration of saline and served as the negative control group. Coltect, 5-ASA, or their combination, were delivered by daily gavage of 0.5 ml solution starting from day 0. All rats were sacrificed after 7 days. Their 10-cm distal colon was removed, opened longitudinally along the anti-mesenteric side and was gently washed with ice-cold saline in order to remove all luminal content. Colon wet weight was weighed and the colonic injury was immediately examined under a stereomicroscope and the visible damage was scored, then part of the colons was placed in 10% formalin for histological evaluation and parts were frozen at […] for later evaluation. The induction and severity of colitis were evaluated by measuring: • 1. Daily body weight. • 2. Colon weight. • 3. Macro-Histological score damage.

[4] = DSS-induced colitis in mice, Coltect versus its components (Example 5b); type: in vivo, C57BL mice
Description: In these experiments the concentration of the ingredients used was determined based on their ratio in the Coltect mixture. As used in the above experiments, the Coltect concentration administered to the model animals was 150 mg/kg. Since a ratio of ⅔ Curcumin to ⅓ Green Tea was used in the Coltect mixture, the administered Curcumin concentration was 100 mg/kg and the Green tea concentration was 50 mg/kg. The Curcumin to Selenium ratio in the Coltect mixture was 500 mg Curcumin to 0.1 mg Selenium, therefore, the administered Selenium concentration was 0.02 mg/kg body weight.
Age- and sex-matched C57BL 5-weeks old female mice were obtained from Harlan Laboratories, Israel. After one week of acclimation, the mice (n=52) were treated with 2.5% DSS administered in the drinking water for 5 days ad libitum, followed by two days of tap water. The treatments were given in doses of 0.3 ml of tap water with 2% DMSO by oral gavage. The mice were randomly divided into 8 sub-groups (n=6) and a control group (n=4) treated as described in Table 8.

[5] = tested on: Aberrant Crypt Foci (ACF); test: DMH-induced ACF formation, Coltect versus its ingredients (Example 5a); type: in vivo, Wistar rats; details: DMH 50 mg/kg rats; daily oral gavage 2 weeks; sacrificed after 2 months (FIG. 10A)
Description: In these experiments the concentration of the ingredients used was determined based on their ratio in the Coltect mixture. As used in the above experiments, the Coltect concentration administered to the model animals was 150 mg/kg. Since a ratio of ⅔ Curcumin to ⅓ Green Tea was used in the Coltect mixture, the administered Curcumin concentration was 100 mg/kg and the Green tea concentration was 50 mg/kg. The Curcumin to Selenium ratio in the Coltect mixture was 500 mg Curcumin to 0.1 mg Selenium, therefore, the administered Selenium concentration was 0.02 mg/kg body weight. The final administered concentrations of the Coltect components are presented in Table 6 below: Forty seven age- and sex-matched Wistar rats were obtained from the animal facility at TASMC. The rats were injected subcutaneously twice a week for two weeks with 0.3 ml of 50 mg/kg body weight DMH (Sigma-Aldrich, Israel) dissolved in PBS, and groups were randomly divided as shown in Table 7. The Coltect compound and its components were daily administered simultaneously for 2 weeks by oral gavage. The rats were sacrificed after 2 months. Reference is now made to FIG. 9 presenting Methylene blue ACF staining performed according to the protocol described in the above Example 1, of normal mucosa (A) aberrant crypt foci containing small ACF with 1-3 crypts (B) and large ACF with more than three crypts (C).

| SMILES | DAI score [1] | Number of crypts in treated colons: 1-3 crypts [2] | Number of crypts in treated colons: >4 crypts [2] | Changes in body weight [3] | DAI score ([4]; DSS 2.5% mice (FIG. 11), oral gavage) | Colon length, in words ([4]; DSS-induced mice, day seven (FIG. 12)) | Reduction in number of ACFs relative to the positive control [5] |
| --- | --- | --- | --- | --- | --- | --- | --- |
| Nc1ccc(O)c(C(=O)O)c1 [5-ASA, 5-aminosalicylic acid] | relatively higher DAI scores | 28 ± 4.1 | 11.6 ± 3.9 | no substantial changes in body weight |  |  |  |
| C[Se]CC[C@H](N)C(=O)O [Selenium, Selenomethionine] |  |  |  |  | 2.33±1.33 | longer colons | about 30% |
